The structures appear in SMILES notation. “And” between values parts separate entries of the source, which are not always exact repeats. Equal values may be shown once. Where a name gives a salt, the structure may show the parent alone.

The test system of one assay is CD1 mice. In words: Mouse tail flick assay (radiant heat, acute thermal nociception). It counts as in vivo. Background: In hot-plate and tail-flick tests a longer latency is read as antinociception.
The target in assay [1] is T1, NOP receptor (Homo sapiens, UniProt P41146).
T1 construct: expressed in transfected cells
In words: [35S]GTPγS binding stimulation (agonist), CHO membranes. It is filed as biochemical. On the technique in general: GTPγS resists hydrolysis and so accumulates on activated G proteins.

In assay [2] the target is T2, KOP receptor (Homo sapiens, UniProt P41145).
T2 construct: expressed in transfected cells
In words: [35S]GTPγS antagonist assay versus U69593. It is filed as biochemical.

Assay [3] deals with T3, MOP receptor (Homo sapiens, UniProt P35372).
T3 construct: expressed in transfected cells
In words: [35S]GTPγS antagonist assay and Schild analysis versus DAMGO. It counts as biochemical.

The target of assay [4] is T4, DOP receptor (Homo sapiens, UniProt P41143).
T4 construct: expressed in transfected cells
In words: [35S]GTPγS binding stimulation (agonist), CHO membranes. It is filed as biochemical.

Assay [5] addresses T4, DOP receptor. It is filed as binding.
Assay [6] addresses T1, NOP receptor. It is filed as binding.
Assay [7] deals with T2, KOP receptor. It is filed as binding.
For assay [8], the target named is T2, KOP receptor. It counts as biochemical.
For assay [9], the target named is T1, NOP receptor. In words: [35S]GTPγS antagonist assay versus N/OFQ. It counts as biochemical.
For assay [10], the target named is T3, MOP receptor. It counts as binding.
The target in assay [11] is T3, MOP receptor. It is filed as biochemical.
For assay [12], the target named is T4, DOP receptor. In words: [35S]GTPγS antagonist assay versus DPDPE. It is filed as biochemical.

T1 sequence (P41146 whole entry): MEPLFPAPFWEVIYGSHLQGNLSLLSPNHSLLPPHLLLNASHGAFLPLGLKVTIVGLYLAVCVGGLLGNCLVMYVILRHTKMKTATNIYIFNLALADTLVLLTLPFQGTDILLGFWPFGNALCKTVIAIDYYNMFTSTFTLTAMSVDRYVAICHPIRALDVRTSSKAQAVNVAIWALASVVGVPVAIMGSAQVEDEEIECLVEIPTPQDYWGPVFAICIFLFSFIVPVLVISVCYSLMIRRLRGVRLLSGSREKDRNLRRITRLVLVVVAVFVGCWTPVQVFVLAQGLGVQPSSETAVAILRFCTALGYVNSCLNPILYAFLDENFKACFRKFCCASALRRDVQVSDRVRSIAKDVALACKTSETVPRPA
T2 sequence (P41145 whole entry): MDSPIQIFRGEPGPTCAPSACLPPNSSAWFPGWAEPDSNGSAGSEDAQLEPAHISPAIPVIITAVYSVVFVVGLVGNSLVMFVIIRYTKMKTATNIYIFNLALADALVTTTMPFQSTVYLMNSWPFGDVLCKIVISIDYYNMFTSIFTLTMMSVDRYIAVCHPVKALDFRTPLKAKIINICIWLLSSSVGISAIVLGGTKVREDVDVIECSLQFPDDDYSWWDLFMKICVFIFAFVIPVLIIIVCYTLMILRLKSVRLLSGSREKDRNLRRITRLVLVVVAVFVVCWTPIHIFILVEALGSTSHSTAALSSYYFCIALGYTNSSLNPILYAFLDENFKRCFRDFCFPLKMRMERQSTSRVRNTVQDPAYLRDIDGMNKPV
T4 sequence (P41143 whole entry): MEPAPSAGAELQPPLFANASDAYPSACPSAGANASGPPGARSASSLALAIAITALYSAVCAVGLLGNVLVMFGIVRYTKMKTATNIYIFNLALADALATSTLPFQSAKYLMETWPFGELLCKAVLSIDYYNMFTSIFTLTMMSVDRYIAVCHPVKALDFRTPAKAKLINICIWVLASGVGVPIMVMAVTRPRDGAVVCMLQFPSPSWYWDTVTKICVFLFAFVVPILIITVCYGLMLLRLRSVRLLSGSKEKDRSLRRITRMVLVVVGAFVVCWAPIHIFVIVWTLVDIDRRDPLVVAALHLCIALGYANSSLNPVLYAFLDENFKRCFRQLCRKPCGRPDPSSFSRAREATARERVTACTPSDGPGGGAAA
T3 sequence (P35372 whole entry): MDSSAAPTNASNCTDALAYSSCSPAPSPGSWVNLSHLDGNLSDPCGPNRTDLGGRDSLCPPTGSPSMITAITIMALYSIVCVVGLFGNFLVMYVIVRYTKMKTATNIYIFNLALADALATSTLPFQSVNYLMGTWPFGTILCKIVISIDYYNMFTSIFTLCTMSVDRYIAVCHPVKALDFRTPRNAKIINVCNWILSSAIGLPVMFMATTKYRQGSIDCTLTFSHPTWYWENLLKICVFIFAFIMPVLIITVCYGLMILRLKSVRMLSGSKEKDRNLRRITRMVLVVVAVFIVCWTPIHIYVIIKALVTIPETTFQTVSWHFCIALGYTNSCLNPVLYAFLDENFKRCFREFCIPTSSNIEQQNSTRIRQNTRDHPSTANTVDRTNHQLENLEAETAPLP

Consider `COc1ccc(CC(=O)O[C@@]23CCC(=O)[C@@H]4Oc5c(O)ccc6c5[C@@]42CCN(CC2CC2)[C@@H]3C6)cc1` [Compound 7f, 14β-(4′-methoxyphenylacetyl)-17-cyclopropylmethyl-7,8-dihydronoroxymorphinone], for which, in the assay with CD1 mice (1 mg/kg s.c.), the “Tail flick latency versus vehicle controls” value is “significant increase in tail flick latency compared to vehicle controls at the 60- and 120-min time points”. In the assay on CD1 mice (1 mg/kg s.c. given 10 min before morphine, P < 0.05), the “Effect on morphine-induced antinociception, tail flick” value is “morphine-induced antinociception was attenuated at the 30- and 60-min time points”. Besides, the “Antinociception versus vehicle controls, tail flick” value in the assay on CD1 mice (3.0 mg/kg s.c.) was “significant antinociception at the 30- and 120-min time points”. Also, the “Antinociception (%MPE), tail flick” value in the assay with CD1 mice (1 and 3 mg/kg s.c., 30, 60, 120 min) is on record as “low levels of antinociception”. Besides, on NOP receptor [1] ([35S]GTPγS stimulation relative to standard agonist N/OFQ), the NOP % stim came to 8.9 ± 1.0%. For the same compound, the EC50 on NOP receptor [1] ([35S]GTPγS stimulation, average ± SD) is 0.0618 ± 0.0201 µM; on DOP receptor [4] ([35S]GTPγS stimulation, * = too little stimulation (if < 15% an EC50 was not always determined)) it was 0.0594 ± 0.0196 µM. Besides, the “Type of inhibition at KOP” value on KOP receptor [2] ([35S]GTPγS antagonist assay) was “non-competitive”. In addition, the IC50 on KOP receptor [2] ([35S]GTPγS, in the presence of 1 μM U69593) worked out at 0.0122 ± 0.00011 µM; on MOP receptor [3] (in the presence of 1 μM DAMGO, read-out: IC50 inhibiting DAMGO stimulation of [35S]GTPγS binding, MOP) it was 0.0124 ± 0.00225 µM; on NOP receptor [9] ([35S]GTPγS, in the presence of 100 nM N/OFQ), 5.64 µM; on DOP receptor [12] ([35S]GTPγS, in the presence of 1 μM DPDPE), 0.0481 ± 0.0141 µM. At MOP receptor [3] (Schild analysis), the “Type of antagonism at MOP” value is reported as “very potent competitive antagonists”. Moreover, the “MOP pA2” value at MOP receptor [3] (antagonist activity in [35S]GTPγS assay, Schild analysis versus DAMGO) was 10.58 ± 0.13 and 10.58 ± 0.14. The “MOP Ke” value at MOP receptor [3] (antagonist activity in [35S]GTPγS assay, Schild analysis versus DAMGO, unit not given) is on record as 0.026 ± 0.008. On DOP receptor [4] ([35S]GTPγS stimulation relative to standard agonist DPDPE), this compound yielded a DOP % stim of 18.4 ± 1.3%. For the same compound, the inhibitory constant (Ki) at DOP receptor [5] was determined as 0.00256 ± 0.00048 µM; on NOP receptor [6], 0.0498 ± 0.0071 µM; at KOP receptor [7], 0.0019 ± 0.00042 µM; on MOP receptor [10], 0.00108 ± 0.00033 µM. At KOP receptor [8], this compound had a KOP % stim of 6.5 ± 3.3%. The “Type of inhibition at NOP” value on NOP receptor [9] ([35S]GTPγS antagonist assay) is “non-competitive”. Besides, at MOP receptor [11], the MOP % stim amounted to 7.8 ± 3.5%. On DOP receptor [12] ([35S]GTPγS antagonist assay), the “Type of inhibition at DOP” value was “non-competitive”.
With `CN1CC[C@]23c4c5ccc(O)c4O[C@H]2[C@@H](O)C=C[C@H]3[C@H]1C5` [morphine, Morphine hydrochloride, reference compound], the “%MPE, tail flick, positive control” value in the assay on CD1 mice (3 mg/kg, 30, 60, 120 min) is “anticipated increase in %MPE at all time points”.

For orientation: EC50 means the concentration that produces a half-maximal response. Higher therefore signals weaker potency. What is called IC50 is the point on the concentration scale where inhibition reaches its midpoint. The Ki is the equilibrium dissociation constant of an inhibitor or competing ligand from its target.

Source of the values: article PMC6156383 (Frontiers in Psychiatry, 2018).
